Data as given in paper PMC8243516, “Inhibition of lysosomal phospholipase A2 predicts drug-induced phospholipidosis” (Journal of Lipid Research, 2021).
“Also recorded” adds a separate entry of the source. Read-outs that look alike come from different tables or passages of the source.

What was measured:
[1] = target: T1, recombinant mouse LPLA2 (PLA2G15) (Mus musculus, UniProt Q8VEB4); experiment: Transacylase activity of LPLA2 (1-O-acyl-N-acetylsphingosine synthase, cell-free liposome assay); assay type: biochemical; conditions: read-out: LPLA2 IC50
T1 construct: purchased Proteos Inc. (Kalamazoo, MI)
T1 sequence (Q8VEB4 34-412): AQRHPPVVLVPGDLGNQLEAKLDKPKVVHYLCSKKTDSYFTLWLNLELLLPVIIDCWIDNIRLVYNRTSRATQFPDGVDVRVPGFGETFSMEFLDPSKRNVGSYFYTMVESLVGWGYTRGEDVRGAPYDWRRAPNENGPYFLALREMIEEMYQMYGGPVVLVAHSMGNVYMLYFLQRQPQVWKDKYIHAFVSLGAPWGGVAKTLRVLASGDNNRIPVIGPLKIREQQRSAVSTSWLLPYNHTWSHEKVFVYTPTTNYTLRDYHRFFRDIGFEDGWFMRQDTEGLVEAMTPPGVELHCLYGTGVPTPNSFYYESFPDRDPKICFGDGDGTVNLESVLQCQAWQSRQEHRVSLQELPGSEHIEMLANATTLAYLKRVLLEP

[2] = target: T2, LPLA2 (Mus musculus, UniProt Q8VEB4); experiment: LPLA2 thermal stability measurement (SYPRO Orange Tm); assay type: binding; conditions: N=3 ± SD
T2 construct: purchased Proteos Inc. (Kalamazoo, MI)
T2 sequence (Q8VEB4 34-412): T1 sequence (Q8VEB4 34-412)

[3] = test system: MDCK cells
[4] = target: T2, LPLA2; experiment: LPLA2 esterase assay with pNPB; assay type: biochemical; conditions: pNPB substrate, no liposomes
Method: pNPB was used to directly measure the activity of LPLA2. pNPB is a water-soluble substrate that can directly access the catalytic site in the absence of liposomes ([25]). A reaction mixture of pNPB (0.2 mM) and cationic amphiphilic compounds at varying concentrations in sodium citrate buffer (pH 4.5) was prepared and prewarmed to 37°C for 5 min in a total volume of 500 μl. The reaction was initiated by the addition of recombinant LPLA2 (5 μg). At predetermined times, 120 μl of the reaction mixture was transferred to a tube containing 120 μl of 0.2 M NaHCO3 and kept on ice. The cold reaction product was subsequently warmed to 37°C, and the absorbance of the reaction product, p-nitrophenoxide, was measured at 400 nm with a Beckman Du-640 spectrophotometer.

[5] = target: T3, LPLA2 binding to DOPC/sulfatide liposomes (Mus musculus, UniProt Q8VEB4); experiment: Liposome LPLA2 cosedimentation assay; conditions: 150,000 g
T3 construct: purchased Proteos Inc. (Kalamazoo, MI)
T3 sequence (Q8VEB4 34-412): T1 sequence (Q8VEB4 34-412)

[6] = test system: MDCK cells; experiment: LipidTOX red particle quantification by fluorescence microscopy; assay type: cell-based
[7] = target: T2, LPLA2; experiment: LPLA2 transacylation activity toward p-NPB (1-O-butanoyl-N-acetylsphingosine formation); assay type: biochemical; conditions: 250 nM fosinopril; LPLA2, N-acetylsphingosine and p-NPB as monodispersion
[8] = cited from earlier work
[9] = test system: MDCK cells; experiment: Screening phospholipidosis assay (LipidTOX Red / NucBlue Live fluorescence ratio); conditions: LipidTOX Red to NucBlue Live fluorescence ratio, 24 h, 15 μM
[10] = test system: phospholipidosis; conditions: phospholipidosis reported in vitro; Refs of Table 1; cited from earlier work
[11] = test system: phospholipidosis; conditions: phospholipidosis reported in vivo, species codes; Refs of Table 1; cited from earlier work
[12] = 1-O-acyl N-acetylsphingosine synthase activity, pH 4.5, DOPC/sulfatide liposomes
[13] = LPLA2 dependent 1-O-acyl N-acetylsphingosine synthase activity
[14] = ref Pubchem and chEMBL databases

IC50 [1, 12] [µM] | (ΔTm)c-(ΔTm)d, difference in melting temperature of LPLA2 alone or in the presence of drug [2] [°C] | SMILES | IC50 [1, 13] [µM] | Ratio (15 μM) [3] | pKa (basic) [8, 14] | In Vivo PLD [11] | also measured
0.18 | -0.90 ± 0.1 | CCC(=O)O[C@@H](O[P@](=O)(CCCCc1ccccc1)CC(=O)N1C[C@H](C2CCCCC2)C[C@H]1C(=O)O)C(C)C [Fosinopril] | 0.181 |  |  |  | IC50 [1]: 0.18 µM; Inhibition of soluble esterase activity of LPLA2 [4]: no inhibition; Cosedimentation of liposomes and recombinant LPLA2 [5]: partially inhibited; Percent area ([6]; 325 nM): increases; Increase in LipidTOX Red particle number versus controls ([6]; 325 nM, 24 h): ~20 fold; LipidTOX Red staining ([6]; 24 h, versus non-treated control): significant increase; Cell number ([6]; versus non-treated control): No change; LipidTOX Red particle number (in words) ([6]; versus non-treated control): significant increase; also recorded: significantly increased; Mean fluorescence intensity (MFI) ([6]; versus non-treated control): significant increase; also recorded: increases; Inhibition of 1-O-butanoyl-N-acetylsphingosine formation [7]: no inhibition; pKa (basic) ([8]; ref Pubchem and chEMBL database): -4.4; Ratio (15 μM) [9]: 0.67
39 | -0.10 ± 0.0 | CN(C)CCCN1c2ccccc2Sc2ccccc21 [Promazine, dimethyl[3-(10H-phenothiazin-10-yl)propyl]amine] |  |  | 9.2 | R | In Vitro PLD [10]: Yes
 | 1.88 ± 0.6 | CC1(C)[C@@H](O)CC[C@]2(C)[C@H]3C(=O)C=C4[C@@H]5C[C@@](C)(C(=O)O)CC[C@]5(C)CC[C@@]4(C)[C@]3(C)CC[C@@H]12 [18 Beta-glycyrrhetinic acid] | 2430 | 0.4 |  |  | 

Further lines, the molecule ahead of its results:

SMILES | IC50 [1, 12] [µM] | (ΔTm)c-(ΔTm)d, difference in melting temperature of LPLA2 alone or in the presence of drug [2] [°C] | IC50 [1, 13] [µM] | Ratio (15 μM) [3] | pKa (basic) [8, 14] | In Vivo PLD [11] | also measured
Cc1ccc2c(Cl)cc(Cl)c(O)c2n1 [5,7 Dichloro-8-hydroxy-2-methyl quinolone] | 1180 | 1.88 ± 0.9 | 1180 | 0.29 |  |  | 
C[C@H]1[C@H]2CC[C@H]3[C@@H]4CC=C5C[C@@H](N(C)C)CC[C@]5(C)[C@H]4CC[C@]23CN1C [Conessin] |  | 0.20 ± 01 | 31.3 | 1.08 |  |  | 
O=C(NC1CCN(CCc2c[nH]c3ccccc23)CC1)c1ccccc1 [Indoramin, N-{1-[2-(1H-indol-3-yl)ethyl]piperidin-4-yl} benzamide] | 124 | 1.08 ± 0.4 |  |  | 9.59 | R | In Vitro PLD [10]: Yes
OC1(c2ccc(Cl)c(C(F)(F)F)c2)CCN(CCCC(c2ccc(F)cc2)c2ccc(F)cc2)CC1 [Penfluridol, 1-[4,4-bis(4-fluorophenyl)butyl]-4-[4-chloro-3-(trifluoromethyl)phenyl]piperidin-4-ol] | 9.09 | 0.11 ± 0.0 |  |  | 8.96 | Yes | Ratio (15 μM) [9]: 0.55
